The numbers were not newly measured in patent publication US20260272907A1, “Therapeutic Tyrosine Kinase Inhibitors for Multiple Sclerosis” (Principia Biopharma Inc., priority 2022, published 2026), which cites them from elsewhere.

The test system of the series is RMS patients. To be noted: from Week 12; cited from earlier work.

For `C=CC(=O)N1CCC(CNc2ncnc(N)c2-c2ccc(Oc3ccccc3)cc2)CC1` [evobrutinib], the “Reduction of new Gd-enhancing T1 lesions” value is “meaningful reduction”.
